Reference: patent publication US20100251434A1, “METHOD FOR GROWING SUGARCANE” (SYNGENTA CROP PROTECTION, INC., priority 2007, published 2010)

Key:
Conditions in all cases: for Culm Diameter / Leaf Width / Plant Height / Tillers: 42 days after planting
[1] = tested on: sugar cane Variety RB 86-7515; assay: Greenhouse pot test, effect of formulated clothianidin on vigour; format: in vivo
Procedure: Greenhouse test with sugarcane buds growing in pots were conducted to study the effect of clothianidin equivalent to an application rate of 200 g ai. ha^−1 on “vigour”, evaluating tillers, plant height, leaf width and culm diameter. This trial was conducted on sugar cane Variety RB 86-7515.
1) carretel with one bud treated with clothianidin (200 g ai. ha^−1) 2) carretel with one bud treated with clothianidin (200 g ai. ha^−1)+15% v/v of polymer 3) stalk with 3 buds untreated 4) carretel with one bud untreated+15% v/v of polymer 5) carretel with one bud untreated 6) stalk with 3 buds treated with clothianidin (200 g ai. ha^−1).
Twenty 1 L pots were filled with 16 L of clay soil, 1.6 L of sand and 8 g of nitrogen, 28 g of phosphorus (P2O5) and 16 g of potassium (K2O). Six carretels of 4 cm length with one bud were planted in each pot (treatments 1, 2, 4 and 5). Two stalks with three buds were planted in each control pot (treatments 3 and 6) to simulate conventional planting. A layer of 3 cm of soil was used to cover the carretels. The carretels of treatments 1 and 2 were treated with 200 g ai.ha^−1 of clothianidin, by dipping the carretels in a slurry for 3 min. The stalks were treated simulating a furrow application at 100 L.ha^−1 of slurry. The pots were maintained with adequate moisture during the test. Evaluations of: plant height, leaf width, culm diameter and number of tillers were performed at 20, 30 and 42 days after planting.

[2] = tested on: sugar cane Variety RB 86-7515; assay: Greenhouse pot test, effect of formulated fipronil on vigour; format: in vivo
Procedure: Greenhouse test with sugarcane buds growing in pots were conducted to study the effect of fipronil equivalent to an application rate of 200 g. ha^−1 on “vigour”, evaluating tillers, plant height, leaf width and culm diameter on sugar cane Variety RB 86-7515.
1) carretel with one bud treated with fipronil (200 g. ha^−1) 2) carretel with one bud treated with fipronil (200 g. ha^−1)+15% v/v of polymer 3) stalk with 3 buds untreated 4) carretel with one bud untreated 5) carretel with one bud untreated+15% v/v of polymer 6) stalk with 3 buds treated with fipronil (200 g. ha-1).
Twenty 1 L pots were filled with 16 L of clay soil, 1.6 L of sand and 8 g of nitrogen, 28 g to of phosphorus (P2O5) and 16 g of potassium (K2O). Six carretels of 4 cm length with one bud were planted in each pot (treatments 1, 2, 4 and 5). Two stalks with three buds were planted in each control pot (treatments 3 and 6) to simulate conventional planting. A layer of 3 cm of soil was used to cover the carretels. The carretels of treatments 1 and 2 were treated with 200 g ai.ha^−1 of fipronil, by dipping the carretels in the slurry for 3 min, based on the uptake capacity of carretels. The stalks were treated simulating a furrow application at 100 L.ha^−1 of slurry. Experimental design adopted was randomized complete block with four replications. The pots were maintained with adequate moisture during the test. Evaluations of: plant height, leaf width, culm diameter and number of tillers were done at 20, 30 and 42 days after planting.

[3] = tested on: sugar cane Variety RB 86 7515; assay: Greenhouse pot test, effect of formulated imidacloprid on vigour; format: in vivo
From the text: 1) carretel with one bud treated with Imidacloprid (1200 g. ha^−1) 2) carretel with one bud treated with Imidacloprid (1200 g. ha^−1)+15% v/v of polymer 3) stalk with 3 buds untreated 4) carretel with one bud untreated 5) carretel with one bud untreated+15% v/v of polymer 6) stalk with 3 buds treated with Imidacloprid (1200 g. ha^−1).
Twenty 1 L pots were filled with 16 L of clay soil, 1.6 L of sand and 8 g of nitrogen, 28 g of phosphorus (P2O5) and 16 g of potassium (K2O). Six carretels of 4 cm length with one bud were planted in each pot (treatments 1, 2, 4 and 5). Two stalks with three buds were planted in each control pot (treatments 3 and 6) to simulate conventional planting. A layer of 3 cm of soil was used to cover the carretels. The carretels of treatments 1 and 2 were treated with 1200 g ai.ha^−1 of imidacloprid, by dipping the carretels in the slurry for 3 min, based on the uptake capacity of carretels. The stalks were treated simulating a furrow application at 100 L.ha^−1 of slurry. Experimental design adopted was randomized complete block with four replications. The pots were maintained with adequate moisture during the test. Evaluations of: plant height, leaf width, culm diameter and number of tillers were done at 20, 30 and 42 days after planting.

[4] = tested on: sugarcane Variety RB 86-7515; assay: Greenhouse pot test, effect of formulated thiamethoxam on vigour; format: in vivo, sugar cane
Procedure: This trial was conducted on Variety RB 86-7515.

[5] = tested on: sugar cane Variety RB 86-7515; assay: Greenhouse pot test, effect of formulated abamectin on vigour; format: in vivo
Procedure: Greenhouse test with sugarcane buds growing in pots were conducted to study the effect of formulated abamectin regarding “vigour”, tillers, plant height, leaf width and culm diameter on sugar cane Variety RB 86-7515.
1) carretel with one bud treated with abamectin 2) carretel with one bud treated with abamectin+15% v/v of polymer 3) stalk with 3 buds untreated 4) carretel with one bud untreated 5) carretel with one bud untreated+15% v/v of polymer 6) stalk with 3 buds treated with abamectin.
Twenty 1 L pots were filled with 16 L of clay soil, 1.6 L of sand and 8 g of nitrogen, 28 g of phosphorus (P2O5) and 16 g of potassium (K2O). Six carretels of 4 cm length with only one bud were planted in each pot (treatments 1, 2, 4 and 5). Two stalks with three buds were planted in each control pot (treatments 3 and 6) to simulate conventional planting. A layer of 3 cm of soil was used to cover the carretels. The carretels of treatments 1, 2 were treated with 200 ml/ha of abamectin, by dipping the carretels in the slurry for 3 min, based on the uptake capacity of carretels. The stalks were treated simulating a furrow application at 100 L.ha^−1 of slurry. Experimental design adopted was randomized complete block with four replications. The pots were maintained with adequate moisture during the test. Evaluations of: plant height, leaf width, culm diameter and number of tillers were done at 20, 30 and 42 days after planting.

[6] = carretel with one bud, dipped in slurry, 200 g ai/ha (0.0 for Untreated + polymer)
[7] = stalk with 3 buds, simulated furrow application, 200 g ai/ha
[8] = carretel with one bud, dipped in slurry, 1200 g ai/ha (0.0 for Untreated + Polymer)
[9] = stalk with 3 buds, simulated furrow application, 1200 g ai/ha
[10] = carretel with one bud, dipped in slurry, 420 g ai/ha (0.0 for Untreated + Polymer)
[11] = stalk with 3 buds, simulated furrow application, 420 g ai/ha
[12] = carretel with one bud, dipped in slurry, 100 g ai/ha (0.0 for Untreated + Polymer)
[13] = stalk with 3 buds, simulated furrow application, 100 g ai/ha

CN/C(=N\[N+](=O)[O-])NCc1cnc(Cl)s1 [Clothianidin, clothianidin]
Culm Diameter [1, 6]: 8.75 mm
Leaf Width [1, 6]: 17.17 mm
Plant Height [1, 6]: 25.02 cm
Tillers [1, 6]: 14.5 number
number of tillers in comparison with the corresponding control (untreated, one-bud) ([1]; result in words, carretels): increased number of tillers
plant height in comparison with the corresponding control (untreated, one-bud) ([1]; result in words, carretels): slight reduction in the plant height
Culm Diameter [1, 7]: 11.25 mm
Leaf Width [1, 7]: 21.5 mm
Plant Height [1, 7]: 22.73 cm
Tillers [1, 7]: 17.0 number

N#Cc1nn(-c2c(Cl)cc(C(F)(F)F)cc2Cl)c(N)c1[S+]([O-])C(F)(F)F (stereo not drawn) [Fipronil, fipronil]
Culm Diameter [2, 6]: 8.69 mm
Leaf Width [2, 6]: 14.16 mm
Plant Height [2, 6]: 20.62 cm
Tillers [2, 6]: 17.25 number
height of the resultant plants in comparison with the control ([2]; result in words): decreased the height of the resultant plants
number of tillers in comparison with the control ([2]; result in words): increased the number of tillers
Culm Diameter [2, 7]: 10.75 mm
Leaf Width [2, 7]: 18.91 mm
Plant Height [2, 7]: 22.12 cm
Tillers [2, 7]: 16.5 number

O=[N+]([O-])NC1=NCCN1Cc1ccc(Cl)nc1 [Imidacloprid]
Culm Diameter [3, 8]: 8.75 mm
Leaf Width [3, 8]: 15.91 mm
Plant Height [3, 8]: 24.0 cm
Tillers [3, 8]: 15.25 number
effect on vigour compared with the other active ingredients ([3]; result in words): less pronounced than with the other active ingredients
number of tillers in comparison with the control ([3]; result in words): increase in the number of tillers
Culm Diameter [3, 9]: 9.49 mm
Leaf Width [3, 9]: 20.16 mm
Plant Height [3, 9]: 23.49 cm
Tillers [3, 9]: 12.0 number

CN1COCN(Cc2cnc(Cl)s2)/C1=N\[N+](=O)[O-] [Thiamethoxam, thiamethoxam]
Culm Diameter [4, 10]: 7.97 mm
Leaf Width [4, 10]: 14.07 mm
Plant Height [4, 10]: 23.67 cm
Tillers [4, 10]: 15.5 number
number of tillers in comparison with the corresponding controls ([4]; result in words, carretels): increased number of tillers
plant height in comparison with the corresponding controls ([4]; result in words, carretels): reduced plant height
increase in "quality" compared with the other treatments ([4]; result in words, not apparent from the listed parameters): increase in “quality” greater than the other treatments
Culm Diameter [4, 11]: 10.17 mm
Leaf Width [4, 11]: 19.5 mm
Plant Height [4, 11]: 26.52 cm
Tillers [4, 11]: 14.75 number

abamectin
Culm Diameter [5, 12]: 7.67 mm
Leaf Width [5, 12]: 14.58 mm
Plant Height [5, 12]: 22.22 cm
Tillers [5, 12]: 14 number
number of tillers in comparison with the control ([5]; result in words): increase in the number of tillers
plant height in comparison with the control ([5]; result in words): decrease in plant height
Culm Diameter [5, 13]: 12.25 mm
Leaf Width [5, 13]: 20.33 mm
Plant Height [5, 13]: 22.54 cm
Tillers [5, 13]: 19.5 number
